The structures appear in SMILES notation. Several values for one entry are separate records, joined by “and”; a condition that tells them apart may be missing. Equal values may be shown once.

Compound `CC(=O)N[C@@H](Cc1cc(F)cc(F)c1)[C@H](O)CNC1(c2cccc(C(C)(C)C)c2)CCCCC1` had a pKa of 8.1.

`Nc1ncc[nH]1` had a pKa of 8.46.

In turn, `CN(C)c1ccc(Nc2c3ccccc3nc3ccccc23)cc1` gave a pKa of 8.46.

Take `CN1C=CN(C2NC(C(Cl)(Cl)Cl)=CN2c2ccc(S(N)(=O)=O)cc2)C=C1` (stereo not given): the pKa is 7.68.

With `Cl.O=C(c1ccc(CN2CCOCC2)cc1)N1CCN(C2CC2)CC1`, the pKa amounted to 5.3.

`NC(N)=Nc1nc(CSCC/C(N)=N/S(N)(=O)=O)cs1` showed a pKa of 7.1.

Turning to `Nc1ncnc2c1ncn2[C@@H]1O[C@H](COS(=O)(=O)NC(=O)c2ccccc2)[C@@H](O)[C@H]1O`, the pKa is 2.8.

In the case of `Clc1cc(Cl)c(N=C2NCCN2)c(Cl)c1`, the pKa is 7.75.

`Cn1ccnc1[N+](=O)[O-]` returned a pKa of 0.48.

Compound `CNc1ccc(Nc2c3ccccc3nc3ccccc23)cc1` had a pKa of 8.42.

For the compound `CNc1ccc([N+](=O)[O-])c2c(NCCCN(C)C)ccnc12`, the pKa came to 4.22.

Regarding `NC(=O)C(F)(F)F`, the pKa was 17.2.

`COc1ccnc(C[S+]([O-])c2nc3cc(OC(F)F)ccc3[n-]2)c1OC.[Na+]` (stereo not given): the pKa is 3.9.

On to `CN/C(=N/CCSCc1nc[nH]c1C)NC#N`, for which the pKa is 6.8 (3×) and 6.97 (2×).

With `CN(C)C1(CCCc2ccc(C(C)(C)C)cc2)COC1`, the pKa was 7.2.

`O=C(c1ccc(CN2CCOCC2)cc1)N1CCN(C2CCC2)CC1`: the pKa came out at 6.5.

`CCS(=O)(=O)c1nc(S(=O)(=O)c2ccc(Cl)cc2)c(N2CCc3ccccc3C2)s1`: the pKa was -8.66.

For `OB(O)C1=CCCS1`, the pKa turned out to be 7.16.

`Clc1ccc(N=C2NCCN2)c(Cl)c1` yielded a pKa of 8.73.

`CN(C)CC(C)(C)CCc1ccc(C(C)(C)C)cc1` returned a pKa of 9.4.

`CCc1ncc[nH]1` displayed a pKa of 7.73.

With `O=[N+]([O-])c1ccc(Nc2c3ccccc3nc3ccccc23)cc1`, the pKa is 5.58.

As to `COC(=O)C1=C(C)NC(C)=C(C(=O)OCCN(C)Cc2ccccc2)C1c1cccc([N+](=O)[O-])c1` (stereo not given), the pKa was 7.6.

Compound `BP(=O)(OC[C@H]1O[C@@H](n2cnc3c(N)nc(SC)nc32)[C@H](O)[C@@H]1O)OP(=O)(O)C(F)(F)P(=O)(O)O` (stereo not given in full) registered a pKa of 7.

Compound `c1c[nH]cn1` returned a pKa of 6.99. This pKa and that of the compound before are within 0.2 log units of each other.

The compound `CC(=O)Nc1ccc2c(Nc3ccc(NS(C)(=O)=O)cc3)c3ccccc3[nH+]c2c1.CS(=O)(=O)[O-]` had a pKa of 7.34.

For the compound `Nc1nc2ccccc2[nH]1`, the pKa was determined as 7.5.

`Cc1cc(Cl)ccc1N=C1NCCN1` yielded a pKa of 9.99.

`COC(=O)Nc1ccc2c(Nc3ccc(NS(C)(=O)=O)cc3)c3ccccc3nc2c1` came in with a pKa of 7.48.

`CS(=O)(=O)Nc1ccc(Nc2c3ccccc3nc3ccc(Cl)cc23)cc1` yielded a pKa of 6.42.

With `COc1cc(NS(C)(=O)=O)ccc1Nc1c2ccccc2nc2c(C(N)=O)cccc12`, the pKa was 6.37.

For the compound `COc1cc(NS(C)(=O)=O)ccc1Nc1c2ccccc2nc2cc(C#N)ccc12`, the pKa turned out to be 5.94.

As to `CCCCCCCOC(=O)c1ccc(OS(N)(=O)=O)cc1`, the pKa came out at 8.27.

For `Cc1nc(N)ncc1CNC(=O)Cn1c(C)cnc(NCCc2ccc3c(c2)CCO3)c1=O`, the pKa was 4.2.

For `CCOc1ccccc1Nc1c2ccccc2nc2ccccc12`, the pKa was 7.85.

For `N[C@@H](CCC(=O)N[C@@H](CS)C(=O)NCC(=O)O)C(=O)O`, the pKa is 8.7.

For the compound `c1ccc(CC2CCN(CCCc3c[nH]c4ccc(-n5cnnc5)cc34)CC2)cc1`, the pKa stood at 9.7.

For `COc1cc(NS(C)(=O)=O)ccc1Nc1c2ccccc2nc2cc(C(C)C)ccc12`, the pKa came to 7.66.

`Clc1cccc(Nc2c3ccccc3nc3ccccc23)c1` registered a pKa of 6.76.

`CS(=O)(=O)Nc1ccc(Nc2c3ccccc3nc3ccccc23)c(Cl)c1` came in with a pKa of 6.34.

`Cc1nc(N)ncc1CNC(=O)Cn1c(C)ccc(NS(=O)(=O)Cc2ccccc2)c1=O`: the pKa was found to be 4.2.

The compound `NC(=O)c1ccc(Nc2c3ccccc3nc3ccccc23)cc1` returned a pKa of 6.47.

The compound `C[C@H](CCC(=O)O)[C@H]1CC[C@H]2[C@@H]3[C@@H](O)C[C@@H]4C[C@H](O)CC[C@]4(C)[C@H]3CC[C@]12C` came in with a pKa of 5.08.

The compound `Cc1c(-c2noc(-c3ccc(OC(C)C)c(C#N)c3)n2)cnc2c1CCN(C(CO)CO)C2` showed a pKa of 6.2.

The compound `CN1CCN(CCCN2c3ccccc3Sc3ccc(Cl)cc32)CC1` returned a pKa of 8.1.

The compound `Cc1cc(Nc2c3ccccc3nc3ccccc23)ccc1NS(C)(=O)=O` registered a pKa of 7.08.

For the compound `CC(C)NCC(O)COc1ccc(COCCOC(C)C)cc1` (stereo not given), the pKa was found to be 9.57.

As to `CC(C)(C)NCc1ccc(S(=O)(=O)c2csc(S(N)(=O)=O)c2)cc1.Cl`, the pKa turned out to be 8.08.

For `CCn1c(=O)c2nc(-c3ccc(S(=O)(=O)NCCN(C)C)cc3)[nH]c2n(CC)c1=O`, the pKa turned out to be 8. This pKa and that of the compound before are within 0.2 log units of each other.

`c1cnon1` displayed a pKa of -5.

In turn, `CS(=O)(=O)Nc1ccc(Nc2c3ccccc3nc3cc(I)ccc23)cc1` yielded a pKa of 6.52.

In turn, `CCN(CC)C(=O)[C@@H]1C=C2c3cccc4[nH]cc(c34)C[C@H]2N(C)C1` had a pKa of 7.8.

Compound `Cc1nc2c(/C=C/Cc3ccccc3)cccn2c1N` had a pKa of 6.75.

`CC(=O)Nc1ccc2c(Nc3ccc(NS(C)(=O)=O)cc3)c3ccccc3nc2c1` registered a pKa of 7.34.

`Cc1ccc(NS(=O)(=O)Cc2ccccc2)c(=O)n1CC(=O)NCc1ccc(C(=N)N)cc1` gave a pKa of 10.2.

The compound `Cc1ccc(C(=O)N(CCCN)[C@@H](c2oc3cc(Cl)ccc3c(=O)c2Cc2ccccc2)C(C)C)cc1` had a pKa of 8.5.

`O=C(O)[C@H]1O[C@@H](O)[C@H](O)[C@@H](O)[C@@H]1O` showed a pKa of 3.2.

In turn, `Clc1cccc(Br)c1N=C1NCCN1` showed a pKa of 7.93.

The compound `CN1CC(C)(c2cccc(NC(=O)c3ccc(Cl)cn3)c2)N=C(N)C1=O` (stereo not given) registered a pKa of 7.6.

Compound `Nc1cccc(Nc2c3ccccc3nc3ccccc23)c1` gave a pKa of 7.58.

`NCC(F)F` had a pKa of 7.3.

`CC(C(=O)O)c1ccc(-c2ccccc2)c(F)c1` (stereo not given): the pKa is 4.6 and 4.2.

As for `CC12CC3CC(C)(C1)CC(N)(C3)C2`, the pKa was determined as 10.4.

In turn, `CN(C)CC1C2c3ccccc3C(c3ccccc32)C1CN(C)C` (stereo not given) came in with a pKa of 9.19.

`CN(C)C(C)(C)CCCc1ccc(C(C)(C)C)cc1` showed a pKa of 10.4.

In the case of `Cc1cnc(NCC(F)(F)c2ccccc2)c(=O)n1CC(=O)NCc1cnc(N)cn1`, the pKa was 2.7.

Compound `Cc1cccc(Nc2c3ccccc3nc3ccccc23)c1` had a pKa of 7.52.

For `CNCc1cn(S(=O)(=O)c2cccnc2)c(-c2cccnc2F)c1F`, the pKa was 8.54.

Compound `CS(=O)(=O)Nc1ccc(Nc2c3ccccc3nc3cc(Cl)ccc23)cc1` registered a pKa of 6.57.

`CN(C)CCCC1(c2ccc(C(C)(C)C)cc2)COC1`: the pKa turned out to be 9.6.

On to `COc1cc(Nc2c3ccccc3nc3ccccc23)ccc1NS(C)(=O)=O`, for which the pKa worked out at 7.03.

Consider `NCCCF`, for which the pKa came out at 9.9.

In turn, `Clc1ccccc1N=C1NCCN1` showed a pKa of 9.15.

As for `FC1(F)CCNCC1`, the pKa amounted to 8.5.

Take `CN(C)CCNC1=Nc2cccc3cccc(c23)N1`: the pKa worked out at 6.

The term pKa denotes the negative logarithm of the acid dissociation constant. High values mean a weaker acid or stronger base, low ones a stronger acid or weaker base.

These data come from the pKa sets of Baltruschat and Czodrowski (2020).
